Assay results taken from ChEMBL document CHEMBL1137230, “Structure-based exploration of cyclic dipeptide chitinase inhibitors” (2004).

Assays:
[1] = tested on: Saccharomyces cerevisiae; assay: Cell aggregates after incubation of compound with Saccharomyces cerevisiae strains as measure of chitinase inhibitory activity; assay type: functional
[2] = tested on: Saccharomyces cerevisiae; assay: Cell aggregates after mild sonication of compound with Saccharomyces cerevisiae strains as measure of chitinase inhibitory activity; assay type: functional

Row | SMILES | Cell aggregates [1] | Cell aggregates [2]
1 | O=C1N[C@@H](Cc2cnc[nH]2)C(=O)N2CCC[C@@H]12 | 90 | 32.7
2 | O=C1N[C@@H](Cc2ccc(O)cc2)C(=O)N2CCC[C@@H]12 | 77.5 | 33.9
3 | O=C1NCC(=O)N2CCC[C@@H]12 [CYCLO(PROLYLGLYCYL)] | 75.7 | 33.2
